Tests used:
memapsin 2 = target: T1, memapsin 2 (Homo sapiens, UniProt P56817); experiment: Inhibition of memapsin 2 cleavage of fluorogenic substrate FS-2 (Ki, Ki apparent, Vi/Vo, % inhibition); type: biochemical; conditions: for Ki: Table 1, apparent Ki in presence of substrate FS-2, N.I. = no inhibition, read-out: Ki app; for % Inh (M1/M2): Table 9, ratio of % inhibition memapsin 1 / memapsin 2, 1 or less = greater inhibition of memapsin 2
T1 construct: made in house; host or cells: E. coli
Experimental: Ki is the inhibition equilibrium constant which indicates the ability of compounds to inhibit the β-secretase activity of memapsin 2 and memapsin 1. […] The K1 value is independent of the substrate, and converted from Ki apparent.
The Vi/Vo values depicted in Table 1 were determined at conditions under which the enzyme and inhibitor concentrations were equal (e.g., about 80 nM, 100 nM).
The relationship of Ki (independent of substrate concentration) to Kiapp is a function of substrate concentration in the assay and the Km for cleavage of the substrate by either memapsin 1 or memapsin 2 by the relationship: Kiapp=Ki(1+[S]/Km).
Ki is the inhibition equilibrium constant which indicates the ability of compounds to inhibit the β-secretase activity of memapsin 2 and memapsin 1. […] The Ki value is independent of the substrate, and converted from Ki apparent.
An aliquot of the inhibitor of known concentration in DMSO was diluted into 1.8 ml 0.1 M NaOAc, pH 4.0. DMSO and added to a final concentration of 10% (v/v), and memapsin 2 (final concentration of 80 nM), followed by a 20 minute equilibration at 37° C. Compounds were evaluated for the ability to inhibit memapsin 1 and memapsin 2 at concentrations between about 10 nM and about 10 μm of inhibitor.
The relationship of Ki (independent of substrate concentration) to Kiapp is a function of substrate concentration in the assay and the Km for cleavage of the substrate by either memapsin 1 or memapsin 2 by the relationship: Kiapp=Ki (1+[S]/Km).

plasma Aβ40 = experiment: Inhibition of Aβ production in APP/F transgenic mouse model of Alzheimer's disease (plasma Aβ40 sandwich ELISA); type: in vivo, mice; conditions: for Reduction of plasma Aβ40 / Course of inhibition of plasma Aβ40 over a 24-h period: APP/F mice; for Reduction of plasma Aβ40: about 163 nanomoles i.p., within 30 minutes following injection; for Course of inhibition of plasma Aβ40 over a 24-h period: single i.p. injection; for Blood brain barrier penetration in transgenic mice: concluded from reduction of plasma Aβ
Experimental: Compounds MMI-138, MMI-165, and MMI-185 were synthesized as described above. Compounds were dissolved in 1 ml of dimethyl sulfoxide (DMSO) to a final concentration of about 1 mg/ml for MMI-165 and MMI-185, and about 10 mg/ml for MMI-138. […] Inhibitors were diluted into PBS or H2O immediately prior to injection, as described below. Inhibition constants were determined by methods described by Ermolieff, et al (Biochem. 39:12450-12456 (2000), the teachings of which are incorporated hereby in their entirety).
The tg2576 strain of mice was obtained from Taconic (Germantown, N.Y.). The APP/F strain of mice were obtained by mating the tg2576 mice with the FVB/N strain. To determine presence of the Swedish APP gene in APP/F mice, the DNA from mice was isolated according to the Qiagen Dneasy™ Tissue Kit. PCR (Qiagen kit and protocol) was used to amplify the fragment of DNA corresponding to the human Swedish APP gene. The following primers were used: […]
At the age of three months, animals of the Alzheimer's disease mouse model APP/F were injected intraperitoneally (i.p.) with about 163 nanomoles of either compounds MMI-138 (molecular weight 674 g/mole; 110 μg per animal, n=2), MMI-165 (molecular weight 626 g/mole; 102 μg per animal, n—2), or MMI-185 (molecular weight 686; 112 μg per animal, n—2).
Heparinized capillary tubes collected blood samples from anesthetized animals from either the retro-orbital sinus or from the saphenous vein at specified intervals following injection. The blood samples were transferred to sterile 1.5 mL microcentrifuge tubes, centrifuged at 5,100 RPM for 10 minutes to recover the plasma (supernatant), and stored at −70° C. until analysis for the Aβ40 by Enzyme Linked-Immuno-Sorbent Assay (ELISA).
A sandwich ELISA (BioSource International, Camarillo, Calif.) was used to determine the levels of Aβ40 in plasma samples. The ELISA utilizes a primary antibody specific for human Aβ for the immobilization of the amino-terminus and a detection antibody specific for the carboxy-terminal amino acids of Aβ40. A conjugated secondary antibody was used to detect the ternary complex, using a stabilized chromogen substrate, quantifiable following addition of 1 M HCl, with the optical densities measured at 450 nm. The procedures were followed according to the BioSource protocol. Optical densities were converted to pg/ml quantities of Aβ40 using a linear regression of the optical densities of standards obtained from the commercial kit, to their known concentrations.

T1 sequence (P56817 41-454): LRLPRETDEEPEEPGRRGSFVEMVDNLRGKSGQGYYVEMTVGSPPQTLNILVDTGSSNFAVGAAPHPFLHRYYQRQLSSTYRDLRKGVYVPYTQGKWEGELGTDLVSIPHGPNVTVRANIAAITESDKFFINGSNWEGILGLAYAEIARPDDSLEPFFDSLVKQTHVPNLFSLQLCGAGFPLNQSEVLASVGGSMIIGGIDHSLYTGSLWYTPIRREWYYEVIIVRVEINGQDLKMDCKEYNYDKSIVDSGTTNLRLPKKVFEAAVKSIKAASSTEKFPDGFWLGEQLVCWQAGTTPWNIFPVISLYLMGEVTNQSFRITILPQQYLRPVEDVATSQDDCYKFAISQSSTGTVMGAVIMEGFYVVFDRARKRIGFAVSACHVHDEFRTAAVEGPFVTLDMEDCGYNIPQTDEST

SMILES	Ki (memapsin 2) [µM]	% Inh (M1/M2) (memapsin 2)	also measured
CC(C)C[C@H](NC(=O)OC(C)(C)C)[C@@H](O)C[C@@H](C)C(=O)N[C@@H](C)C(=O)NCc1ccccc1 [MMI-001]	3740	–	–
CSCC[C@H](NC(=O)[C@H](C)NC(=O)[C@H](C)C[C@H](O)[C@H](CC(C)C)NC(=O)OC(C)(C)C)C(=O)NCc1ccccc1 [MMI-002]	431	–	–
CC(C)C[C@H](NC(=O)OC(C)(C)C)[C@@H](O)C[C@@H](C)C(=O)N[C@@H](C)C(=O)N[C@@H](CCS(C)(=O)=O)C(=O)NCc1ccccc1 [MMI-003]	2620	–	–
CSCC[C@H](NC(=O)[C@@H](NC(=O)OC(C)(C)C)C(C)C)C(=O)N[C@@H](CC(C)C)[C@@H](O)C[C@@H](C)C(=O)N[C@H]1c2ccccc2C[C@H]1O [MMI-046]	150	–	–
CC(C)C[C@H](NC(=O)[C@H](CCS(C)(=O)=O)NC(=O)[C@@H](NC(=O)OC(C)(C)C)C(C)C)[C@@H](O)C[C@@H](C)C(=O)N[C@H]1c2ccccc2C[C@H]1O [MMI-047]	111	–	–
CC(C)C[C@H](NC(=O)[C@H](CCO)NC(=O)c1cnc2ccccc2c1)[C@@H](O)C[C@@H](C)C(=O)N[C@H](C(=O)N[C@H]1c2ccccc2C[C@H]1O)C(C)C [MMI-049]	198	–	–
CCC(C)[C@H](NC(=O)[C@H](C)C[C@H](O)[C@H](CC(C)C)NC(=O)[C@H](CCO)NC(=O)c1cnc2ccccc2c1)C(=O)N[C@H]1c2ccccc2C[C@H]1O (stereo partly shown) [MMI-050]	146	–	–
CC(C)C[C@H](NC(=O)[C@H](CCS(C)(=O)=O)NC(=O)[C@@H](NC(=O)OC(C)(C)C)C(C)C)[C@@H](O)C[C@@H](C)C(=O)N[C@@H]1c2ccccc2C[C@@H]1O [MMI-054]	469	–	–
CSCC[C@H](NC(=O)[C@@H](NC(=O)OC(C)(C)C)C(C)C)C(=O)N[C@@H](CC(C)C)[C@@H](O)C[C@@H](C)C(=O)N[C@H]1CCCC[C@@H]1O [MMI-055]	631	–	–
CC(C)C[C@H](NC(=O)[C@H](CCS(C)(=O)=O)NC(=O)[C@@H](NC(=O)OC(C)(C)C)C(C)C)[C@@H](O)C[C@@H](C)C(=O)N[C@@H]1CCCC[C@@H]1O [MMI-058]	408	–	–
CC(C)C[C@H](NC(=O)[C@H](CCS(C)(=O)=O)NC(=O)[C@@H](NC(=O)OC(C)(C)C)C(C)C)[C@@H](O)C[C@@H](C)C(=O)N[C@@H]1CCCC[C@@H]1O [MMI-060]	101	–	–
CSCC[C@H](NC(=O)[C@@H](NC(=O)OC(C)(C)C)C(C)C)C(=O)N[C@@H](CC(C)C)[C@@H](O)CN(C)C(=O)[C@H](NC(=O)OCc1ccccc1)C(C)C [MMI-061]	15500	–	–
CC(C)C[C@H](NC(=O)[C@H](CCS(C)(=O)=O)NC(=O)[C@@H](NC(=O)OC(C)(C)C)C(C)C)[C@@H](O)C[C@@H](C)C(=O)N[C@@H](C(=O)NCc1ccccc1)[C@@H](C)O [MMI-073]	–	0.73	–
CSCC[C@H](NC(=O)[C@@H](NC(=O)OC(C)(C)C)C(C)C)C(=O)N[C@@H](CC(C)C)[C@@H](O)C[C@@H](CO)C(=O)N[C@H](C(=O)NCc1ccccc1)C(C)C [MMI-078]	–	–	% Inh (M1/M2) (memapsin 2; listed as 78): 0.76
Cc1c(O)cccc1C(=O)N[C@@H](C(C)C)[C@@H](O)N[C@@H](CCS(C)(=O)=O)C(=O)N[C@@H](CC(C)C)[C@@H](O)C[C@@H](C)C(=O)N[C@@H](CC(C)C)C(=O)NCc1ccccc1 [MMI-122]	–	–	Vi/Vo (memapsin 2; ratio of initial cleavage velocities of FS-2 with/without compound, enzyme and inhibitor concentrations equal (e.g., about 80 nM, 100 nM)): 1.17
CSCC[C@H](NC(=O)[C@@H](NC(=O)OC(C)(C)C)C(C)C)C(=O)N[C@@H](CC(C)C)[C@@H](O)C[C@@H](C)C(=O)N[C@@H](C(C)C)C1CCCCO1 (stereo partly shown) [MMI-130]	110	–	–
CSCC[C@H](NC(=O)[C@@H](NC(=O)OC(C)(C)C)C(C)C)C(=O)N[C@@H](CC(C)C)[C@@H](O)C[C@@H](CO)C(=O)N[C@H](C(=O)NCc1ccccc1)C(C)C [MMI-132]	–	1.30	–
CSCC[C@H](NC(=O)OCn1nc(C)cc1C)C(=O)N[C@@H](CC(C)C)[C@@H](O)C[C@@H](C)C(=O)N[C@H](C(=O)NCc1ccccc1)C(C)C [MMI-138]	–	0.10	Reduction of plasma Aβ40 (plasma Aβ40): 57%; Course of inhibition of plasma Aβ40 over a 24-h period (plasma Aβ40): remained nearly constant; Blood brain barrier penetration in transgenic mice (plasma Aβ40): penetrated the blood brain barrier; Ki for memapsin 2 lower than Ki for memapsin 1 (selectivity) (memapsin 2; memapsin 2 relative to memapsin 1, stated in text): about 60 fold
Cc1cc(C)n(COC(=O)N[C@@H](CCS(C)(=O)=O)C(=O)N[C@@H](CC(C)C)[C@@H](O)C[C@@H](C)C(=O)N[C@H](C(=O)NCc2ccccc2)C(C)C)n1 [MMI-139]	–	0	–
CSCC[C@H](NC(=O)OCn1nc(C)cc1C)C(=O)N[C@@H](CC(C)C)[C@@H](O)C[C@@H](C)C(=O)N[C@H](C(=O)NCC(C)C)C(C)C [MMI-156]	–	0.47	–
CSCC[C@H](NC(=O)OCn1nc(C)cc1C)C(=O)N[C@@H](CC(C)C)[C@@H](O)C[C@@H](C)C(=O)N[C@H](C(=O)NC(C)C)C(C)C [MMI-165]	–	0.45	Reduction of plasma Aβ40 (plasma Aβ40): 46%; Course of inhibition of plasma Aβ40 over a 24-h period (plasma Aβ40): remained nearly constant; Blood brain barrier penetration in transgenic mice (plasma Aβ40): penetrated the blood brain barrier
CCCCNC(=O)[C@@H](NC(=O)[C@H](C)C[C@H](O)[C@H](CC(C)C)NC(=O)[C@H](CCSC)NC(=O)OCn1nc(C)cc1C)C(C)C [MMI-167]	–	0.18	–
CSCC[C@H](NC(=O)OCn1nc(C)cc1C)C(=O)N[C@@H](CC(C)C)[C@@H](O)C[C@@H](C)C(=O)N[C@@H](CC(C)C)C(=O)NC(CF)CF [MMI-171]	–	0.18	–
CSCC[C@H](NC(=O)OCCn1nc(C)cc1C)C(=O)N[C@@H](CC(C)C)[C@@H](O)C[C@@H](C)C(=O)N[C@@H](CC(C)C)C(=O)NCC(C)C [MMI-176]	–	0	–
CSCC[C@H](NC(=O)OCCn1nc(C(C)C)cc1C(C)C)C(=O)N[C@@H](CC(C)C)[C@@H](O)C[C@@H](C)C(=O)N[C@H](C(=O)NCC(C)C)C(C)C [MMI-180]	–	0	–
CSCC[C@H](NC(=O)OCn1nc(C)cc1C)C(=O)N[C@@H](CC(C)C)[C@@H](O)C[C@]1(C)CCN([C@@H](CC(C)C)C(=O)NCC(C)C)C1=O [MMI-181]	–	0.19	–
CCCCNC(=O)[C@H](C(C)C)N1CC[C@@](C)(C[C@H](O)[C@H](CC(C)C)NC(=O)[C@H](CCSC)NC(=O)OCn2nc(C)cc2C)C1=O [MMI-182]	–	0	–
COCC[C@H](NC(=O)[C@H](CC(C)C)NC(=O)OC(C)(C)C)C(=O)N[C@@H](CC(C)C)[C@@H](O)C[C@@H](C)C(=O)N[C@@H](CC(C)C)C(=O)NC(C)C [MMI-185]	–	–	Reduction of plasma Aβ40 (plasma Aβ40): 63%; Course of inhibition of plasma Aβ40 over a 24-h period (plasma Aβ40): appeared to return to initial level; Blood brain barrier penetration in transgenic mice (plasma Aβ40): penetrated the blood brain barrier

From patent US20060234944A1, “Beta-secretase inhibitors and methods of use” (Oklahoma Medical Reseach Foundation, priority 2001, published 2006)
